From patent publication US20150335547A1, “ORAL CARE COMPOSITION CONTAINING IONIC LIQUIDS” (priority 2012, published 2015)

tested on: biofilm; experiment: biofilm removal by ionic liquids (training set for QSFR model); format: cell-based; conditions: where two values were available (MMPZ MeSO4, EMIM Tosylate) the value obtained at the higher pH
Description: The process of QSFR model building involves assembling a dataset with experimental results and molecular structures, descriptor calculation and contingency analysis followed by model generation and validations. Ionic liquids with biofilm removal data served as a data set for model generation. The details of the dataset are shown in Table 1 (ID and biofilm removal data for ionic liquids selected for model generation (training set).

| Compound | % removal of biofilm [%] |
| --- | --- |
| CCCCCCCCCCn1cc[n+](C)c1.[Cl-] [DMIM CL, 1-decyl-3-methylimidazolium (DMIM) chloride] | 57.3 |
| CCCCn1cc[n+](C)c1.COS(=O)(=O)[O-] [BMIM MeSO4, BMIM methyl sulfate] | 53.9 |
| CC(=O)[O-].CCCCn1cc[n+](C)c1 [BMIMOAc, BMIM acetate (OAc)] | 55.9 |
| COS(=O)(=O)[O-].Cc1cn(C)[n+](C)c1 [MMMPz MeSO4, 1,2,4-trimethylpyrazolium (MMMPZ) methyl sulfate] | 57.8 |
| CCCCn1cc[n+](C)c1.[Br-] [BMIM Br, BMIM bromide (Br)] | 48.0 |
| CCn1cc[n+](C)c1.Cc1ccc(S(=O)(=O)[O-])cc1 [EMIM Tosylate, EMIM tosylate] | 59.5 |
| 1,2,3-trimethylimidazolium methyl sulfate [TMIM MeSO4] | 51.8 |
| CCn1cc[n+](C)c1.[Br-] [EMIM Br, EMIM bromide (Br)] | 48.6 |
| 1-ethyl-3-methylimidazolium ethylsulphate [EMIM Ethyl SO4] | 48.1 |
| CCCCn1cc[n+](C)c1.[Cl-] [BMIM Cl, 1-butyl-3-methylimidazolium (BMIM) chloride (Cl)] | 43.8 |
| CCOP(=O)([O-])OCC.CCn1cc[n+](C)c1 [EMIM diethyl PO4, EMIM diethyl phosphate] | 52.7 |
| CCCCCCCCOS(=O)(=O)[O-].CCCCn1cc[n+](C)c1 [BMIM Octyl SO4, BMIM octyl sulfate] | 58.6 |
| Tris(2-hydroxyethyl)methylammonium methylsulphate [MTEOA MeSO4] | 52.8 |
| CCn1cc[n+](C)c1.[Cl-] [EMIM Cl, 1-ethyl-3-methylimidazolium (EMIM) chloride (Cl)] | 44.3 |
| C=CCn1cc[n+](C)c1.[Cl-] [AMIM Cl, 1-allyl-3-methylimidazolium (AMIM) chloride] | 44.8 |
